# Experimental data published in US9204640B2, “2-acyloxy-pyrrolin-4-ones” (BAYER INTELLECTUAL PROPERTY GMBH, priority 2011, dated 2015).
# How the values were obtained:
# Format in all cases: in vivo
# Oryza sativa = test: Herbicidal post-emergence action, ORYSA
# Source text: (§1) • Seeds of monocotyledonous and dicotyledonous weed plants and crop plants are placed in wood-fiber pots in sandy loam and covered with soil. The test compounds, formulated in the form of wettable powders (WP) or emulsion concentrates (EC), are then, as an aqueous suspension with a water application rate of 600-800 l/ha (converted), with 0.1-0.2% of wetting agent added, applied at various dosages to the surface of the covering soil. • After the treatment, the pots are placed in a greenhouse and kept under good growth conditions for the test plants. […] Herbicidal Post-Emergence Action (Post) • Seeds of monocotyledonous and dicotyledonous weed and crop plants are placed in sandy loam in wood-fiber pots, covered with soil and cultivated in a greenhouse under good growth conditions. 2-3 weeks (stages 10-13 according to the BBCH scale) after sowing, the test plants are treated at a height of 5-10 cm. The test compounds, formulated as wettable powders (WP) or emulsion concentrates (EC), are then, with a water application rate of 600-800 l/ha (converted), with 0.1-0.2% of wetting agent added, sprayed at various dosages onto the green parts of the plants.
# (§2) AVEFA: Avena fatua LOLMU: Lolium multiflorum SETVI: Setaria viridis CHEAL: Chenopodium album VIOTR: Viola tricolor VERPE: Veronica persica ORYSA: Oryza sativa TRZAS: Triticum aestivum ZEAMX: Zea mays ALOMY: Alopecurus myosuroides DIGSA: Digitaria sanguinalis ECHCG: Echinocloa crus-galli SORHA: Sorghum halepense AVESA: Avena sativa AMARE: Amaranthus retroflexus SINAL: Sinapis alba STEME: Stellaria media
# Lolium multiflorum = test: Herbicidal post-emergence action, LOLMU
# Procedure: (§3) 2. Herbicidal Post-Emergence Action
# (§4) • Seeds of monocotyledonous and dicotyledonous weed and crop plants are placed in sandy loam in wood-fiber pots, covered with soil and cultivated in a greenhouse under good growth conditions. 2 to 3 weeks after sowing, the test plants are treated at the one-leaf stage. The test compounds, formulated as wettable powders (WP), are then, with a water application rate of 600 l/ha (converted), with 0.2% of wetting agent added, sprayed at various dosages onto the green parts of the plants. After the test plants have been kept in the greenhouse under optimum growth conditions for about 3 weeks, the activity of the preparations is rated visually in comparison to untreated controls (herbicidal activity in percent: 100% activity=the plants have died, 0% activity=like control plants). • In addition to the compounds mentioned above, the following compounds show an activity of 90-100% against Alopecurus myosuroides, Avena fatua, Digitaria sanguinalis, Echinocloa crus-galli, Lolium multiflorum, Setaria viridis and Sorghum halapense when applied by the post-emergence method at 320 g/ha: I-a-2, I-a-4, I-a-5, I-a-7, I-a-9, I-a-10, I-a-11, I-a-12, I-a-13, I-a-15. • In addition to the compounds mentioned above, the following compounds show an activity of 90-100% against Alopecurus myosuroides, Avena fatua, Echinocloa crus-galli, Lolium multiflorum and Setaria viridis when applied by the post-emergence method at 80 g/ha: I-a-1, I-b-2.
# as §1, §2
# Zea mays = test: Herbicidal post-emergence action, ZEAMX
# Source text: as §1, §2
# Avena fatua = test: Herbicidal post-emergence action, AVEFA
# Procedure: as §3, §4, §1, §2
# Triticum aestivum = test: Herbicidal post-emergence action, TRZAS
# Source text: as §1, §2
# Alopecurus myosuroides = test: Herbicidal post-emergence action, ALOMY
# Procedure: as §3, §4, §1, §2
# Tetranychus urticae = test: Tetranychus test (TETRUR spray treatment; OP-resistant in Example 10); settings: for effect in % (spider mites killed): after 5 days, bean leaf discs
# Procedure: Tetranychus Test (TETRUR Spray Treatment)
# To produce a suitable preparation of active compound, 1 part by weight of active compound is mixed with the stated amount of solvent and emulsifier, and the concentrate is diluted with emulsifier-containing water to the desired concentration. Discs of bean leaves (Phaseolus vulgaris) which are infested by all stages of the greenhouse red spider mite (Tetranychus urticae) are sprayed with an active compound preparation of the desired concentration.
# After 5 days, the effect in % is determined. 100% means that all of the spider mites have been killed; 0% means that none of the spider mites have been killed.
# Tetranychus Test, OP-Resistant (TETRUR Spray Treatment)
# To produce a suitable preparation of active compound, 1 part by weight of active compound is mixed with the stated amount of solvent and emulsifier, and the concentrate is diluted with emulsifier-containing water to the desired concentration.
# Discs of bean leaves (Phaseolus vulgaris) which are infested by all stages of the greenhouse red spider mite (Tetranychus urticae) are sprayed with an active compound preparation of the desired concentration.
# After the desired period of time, the activity in % is determined. 100% means that all of the spider mites have been killed; 0% means that none of the spider mites have been killed.
# Myzus persicae = test: Myzus test (MYZUPE spray treatment); settings: for effect in % (aphids killed): application rate 500 g/ha, after 5 days, Chinese cabbage leaf discs
# Procedure: Myzus Test (MYZUPE Spray Treatment) [table] To produce a suitable preparation of active compound, 1 part by weight of active compound is mixed with the stated amount of solvent and emulsifier, and the concentrate is diluted with emulsifier-containing water to the desired concentration. Discs of Chinese cabbage (Brassica pekinensis) infected by all stages of the green peach aphid (Myzus persicae) are sprayed with an active compound preparation of the desired concentration. After 5 days, the effect in % is determined 100% means that all of the aphids have been killed; 0% means that none of the aphids have been killed. Myzus Test (MYZUPE Spray Treatment) To produce a suitable preparation of active compound, 1 part by weight of active compound is mixed with the stated amount of solvent and emulsifier, and the concentrate is diluted with emulsifier-containing water to the desired concentration. Discs of Chinese cabbage (Brassica pekinensis) infected by all stages of the green peach aphid (Myzus persicae) are sprayed with an active compound preparation of the desired concentration. After the desired period of time, the activity in % is determined. 100% means that all of the aphids have been killed; 0% means that none of the aphids have been killed.
# Phaedon cochleariae = test: Phaedon test (PHAECO spray treatment); settings: for effect in % (beetle larvae killed): application rate 500 g/ha, after 7 days, Chinese cabbage leaf discs; for inhibition at 100 g/ha: Phaedon cochleariae, 168 h, 7dat
# Procedure: Phaedon Test ([…] Spray Treatment) [table] To produce a suitable preparation of active compound, 1 part by weight of active compound is mixed with the stated amount of solvent and emulsifier, and the concentrate is diluted with emulsifier-containing water to the desired concentration. Discs of Chinese cabbage (Brassica pekinensis) are sprayed with an active compound preparation of the desired concentration and, after drying, populated with larvae of the mustard beetle (Phaedon cochleariae). After 7 days, the effect in % is determined 100% means that all beetle larvae have been killed; 0% means that none of the beetle larvae have been killed. Phaedon Test ([…] Spray Treatment) To produce a suitable preparation of active compound, 1 part by weight of active compound is mixed with the stated amount of solvent and emulsifier, and the concentrate is diluted with emulsifier-containing water to the desired concentration. Discs of Chinese cabbage (Brassica pekinensis) are sprayed with an active compound preparation of the desired concentration and, after drying, populated with larvae of the mustard beetle (Phaedon cochleariae). After the desired period of time, the activity in % is determined. 100% means that all beetle larvae have been killed; 0% means that none of the beetle larvae have been killed.
# Echinocloa crus-galli = test: Herbicidal post-emergence action, ECHCG
# Procedure: as §3, §4, §1, §2
# Sorghum halepense = test: Herbicidal post-emergence action, SORHA; settings: for % Activity SORHA: 80 g/ha
# Procedure: as §3, §4, §1, §2
# Setaria viridis = test: Herbicidal post-emergence action, SETVI; settings: 80 g/ha
# Procedure: as §3, §4, §1, §2
# Digitaria sanguinalis = test: Herbicidal post-emergence action, DIGSA; settings: 80 g/ha
# Procedure: as §3, §4, §1, §2
# Boophilus microplus = Boophilus microplus test (BOOPMI injection); settings: 20 μg/animal, after 7 days
# Procedure: Boophilus Microplus Test (BOOPMI Injection) [table] To prepare an appropriate active compound formulation, 10 mg of active compound are mixed with 0.5 ml of solvent and the concentrate is diluted with solvent to the desired concentration. The solution of active compound is injected into the abdomen (Boophilus microplus), and the animals are transferred into dishes and kept in a climatized room. The activity is assessed by deposition of fertile eggs. After 7 days, the effect in % is determined. 100% means that none of the ticks has laid any fertile eggs.
smiles,measurement,setting,value
CCc1cc(Cl)cc(OC)c1C1=C(OC(=O)C(C)C)C2(CCCCC2)NC1=O,% Activity ORYSA,Oryza sativa; concentration 80 g/ha 20 g/ha,0%
same,% Activity LOLMU,Lolium multiflorum; concentration 80 g/ha 20 g/ha,50%
same,% Activity ZEAMX,Zea mays; concentration 80 g/ha 20 g/ha,20%
same,% Activity AVEFA,Avena fatua; concentration 80 g/ha 20 g/ha,20%
same,% Activity TRZAS,"Triticum aestivum; concentration 80 g/ha 20 g/ha, first TRZAS column",0%
same,% Activity TRZAS,"Triticum aestivum; concentration 80 g/ha 20 g/ha, second TRZAS column",0%
same,% Activity ALOMY,Alopecurus myosuroides; concentration 80 g/ha 20 g/ha,40%
CCC(C)(C)C(=O)OC1=C(c2cc(C)ccc2C)C(=O)N[C@]12CC[C@@H](OC)CC2,inhibition at 500 g/ha,"Tetranychus urticae; Tetranychus urticae, 120 h, 500 g/ha, 5dat, OP-resistant",0%
same,inhibition at 20 g/ha,"Myzus persicae; Myzus persicae, 120 h, 20 g/ha, 5dat",0%
CCc1cc(C)cc(Br)c1C1=C(OC(=O)C(C)C)NC(C)(C)C1=O [Example I-a-1],effect in % (beetle larvae killed),Phaedon cochleariae,83%
same,effect in % (aphids killed),Myzus persicae,90%
CCOC(=O)OC1=C(c2cc(C)ccc2C)C(=O)N[C@@]12CCC[C@@H](COC)C2 [I-1-c-2 known from WO 07/048545],inhibition at 100 g/ha,Phaedon cochleariae,50%
same,inhibition at 4 g/ha,"Myzus persicae; Myzus persicae, 120 h, 5dat",0%
CCc1cc(Br)cc(C)c1C1=C(OC(=O)C(C)(C)C)NC2(CCC(OC)CC2)C1=O (centres unmarked) [I-a-5],% Activity ECHCG,Echinocloa crus-galli; 20 g/ha,80%
CCCc1cc(Br)cc(Br)c1C1=C(OC(=O)C(C)(C)C)NC(C)(C)C1=O [I-a-11],effect in % (beetle larvae killed),Phaedon cochleariae,83%
CCc1cc(Br)cc(Cl)c1C1=C(OC(=O)C(C)(C)C)NC2(CCCCC2)C1=O [I-a-14],% Activity ORYSA,Oryza sativa; 80 g/ha,80%
same,effect in % (spider mites killed),Tetranychus urticae; application rate 500 g/ha,90%
same,effect in % (beetle larvae killed),Phaedon cochleariae,100%
same,% Activity LOLMU,Lolium multiflorum; 80 g/ha,100%
same,% Activity ZEAMX,Zea mays; 80 g/ha,100%
same,% Activity SORHA,Sorghum halepense,100%
same,% Activity SORHA,Sorghum halepense; second SORHA column,90%
same,% Activity SETVI,Setaria viridis,100%
same,effect in % (aphids killed),Myzus persicae,90%
same,% Activity AVEFA,Avena fatua; 80 g/ha,100%
same,% Activity ECHCG,Echinocloa crus-galli; 80 g/ha,100%
same,% Activity TRZAS,Triticum aestivum; 80 g/ha,90%
same,% Activity ALOMY,Alopecurus myosuroides; 80 g/ha,80%
same,% Activity DIGSA,Digitaria sanguinalis,100%
same,efficacy in % (deposition of fertile eggs),Boophilus microplus,80%
CCC(C)(C)C(=O)OC1=C(c2cc(C)ccc2C)C(=O)C2(CCC(OC)CC2)N1 (centres unmarked) [I-a-16],% Activity TETRUR,"Tetranychus urticae; 500 g/ha, 5dat, OP-resistant",90%
same,effect in % (spider mites killed),Tetranychus urticae; application rate 500 g/ha,90%
same,% Activity MYZUPE,"Myzus persicae; 20 g/ha, 5dat",100%
same,effect in % (aphids killed),Myzus persicae,100%
CCOC(=O)OC1=C(c2cc(C)ccc2C)C(=O)[C@@]2(CCC[C@H](COC)C2)N1 [I-b-1],effect in % (spider mites killed),Tetranychus urticae; application rate 100 g/ha,100%
same,inhibition at 100 g/ha,Phaedon cochleariae,100%
same,effect in % (beetle larvae killed),Phaedon cochleariae,100%
same,inhibition at 4 g/ha,"Myzus persicae; Myzus persicae, 120 h, 5dat",90%
same,effect in % (aphids killed),Myzus persicae,100%
same,efficacy in % (deposition of fertile eggs),Boophilus microplus,95%
CCc1cc(Br)cc(C)c1C1=C(OC(=O)C(C)(C)C)C2(CCC(OC)CC2)NC1=O (centres unmarked) [I-b-2 known from WO 05/006125],inhibition at 20 g/ha,"Echinocloa crus-galli; Echinochloa crus-galli, post-emergence, 20 g/ha",50%
CCOC(=O)OC1=C(c2cc(C)c(Cl)cc2C)C(=O)C2(CCC(COC)CC2)N1 (centres unmarked) [I-b-4],effect in % (aphids killed),Myzus persicae,90%
CCOC(=O)OC1=C(c2c(CC)cc(C)cc2C2CC2)C(=O)C(C)(C)N1 [I-b-5],effect in % (aphids killed),Myzus persicae,100%
CCc1cc(Br)cc(Cl)c1C1=C(OC(=O)C(C)(C)C)C2(CCCCC2)NC1=O [I-b-41 known from WO 04/065366],inhibition at 80 g/ha,"Oryza sativa; Oryza sativa, post-emergence, 80 g/ha",0%
same,inhibition at 80 g/ha,"Lolium multiflorum; Lolium multiflorum, post-emergence, 80 g/ha",0%
same,inhibition at 80 g/ha,"Zea mays; Zea mays, post-emergence, 80 g/ha",0%
same,inhibition at 80 g/ha,"Sorghum halepense; Sorghum halepense, post-emergence",0%
same,inhibition at 80 g/ha,"Setaria viridis; Setaria viridis, post-emergence",0%
same,inhibition at 80 g/ha,"Avena fatua; Avena fatua, post-emergence, 80 g/ha",0%
same,inhibition at 80 g/ha,"Echinocloa crus-galli; Echinochloa crus-galli, post-emergence, 80 g/ha",80%
same,inhibition at 80 g/ha,"Triticum aestivum; Triticum aestivum, post-emergence, 80 g/ha",0%
same,inhibition at 80 g/ha,"Alopecurus myosuroides; Alopecurus myosuroides, post-emergence, 80 g/ha",0%
same,inhibition at 80 g/ha,"Digitaria sanguinalis; Digitaria sanguinalis, post-emergence",0%
